ChEMBL document CHEMBL4811216, “Chemotherapy for human schistosomiasis: how far have we come? What's new? Where do we go from here?” (RSC Med Chem, 2020)
Blank lines part the entries; values can stand above or below the compound they belong to.

Assays:
Schistosoma mansoni [1] = assay: Antischistosomal activity against Schistosoma mansoni incubated for 72 hrs by microscopic method; assay type: functional, organism-based
Schistosoma mansoni [2] = assay: microbe, parasite or virus in culture; conditions: Liberian, 72 h
Description: Antischistosomal activity against Schistosoma mansoni Liberian NTS incubated for 72 hrs by microscopic method

Schistosoma mansoni [3] = assay: microbe, parasite or virus in culture; conditions: 72 h
Description: Antischistosomal activity against Schistosoma mansoni incubated for 72 hrs by inverted microscopic method

Schistosoma mansoni [4] = assay: Antischistosomal activity against adult Schistosoma mansoni measured up to 72 hrs by microscopic method; assay type: functional, organism-based
Schistosoma mansoni [5] = assay: Antischistosomal activity against Schistosoma mansoni NTS assessed as worm mortality at 10 uM measured up to 72 hrs by microscopic method relative to control; assay type: functional; conditions: time hrs <=72
Schistosoma haematobium = assay: Antischistosomal activity against Schistosoma haematobium at 10 uM measured after 72 hrs relative to control; assay type: functional
Schistosoma mansoni [6] = assay: Antischistosomal activity against adult Schistosoma mansoni assessed as worm mortality at 10 uM measured up to 72 hrs by microscopic method relative to control; assay type: functional; conditions: time hrs <=72
[7] = target: HDAC1 (histone deacetylase 1) (Homo sapiens, UniProt Q13547); assay: Inhibition of human HDAC1 using Z-Lys(Ac)-AMC as substrate at 1 uM by fluorimetric method relative to control; conditions: HDAC1 enzyme, probe Z-Lys(Ac)-AMC
Chain of HDAC1 (histone deacetylase 1) (Q13547 whole entry): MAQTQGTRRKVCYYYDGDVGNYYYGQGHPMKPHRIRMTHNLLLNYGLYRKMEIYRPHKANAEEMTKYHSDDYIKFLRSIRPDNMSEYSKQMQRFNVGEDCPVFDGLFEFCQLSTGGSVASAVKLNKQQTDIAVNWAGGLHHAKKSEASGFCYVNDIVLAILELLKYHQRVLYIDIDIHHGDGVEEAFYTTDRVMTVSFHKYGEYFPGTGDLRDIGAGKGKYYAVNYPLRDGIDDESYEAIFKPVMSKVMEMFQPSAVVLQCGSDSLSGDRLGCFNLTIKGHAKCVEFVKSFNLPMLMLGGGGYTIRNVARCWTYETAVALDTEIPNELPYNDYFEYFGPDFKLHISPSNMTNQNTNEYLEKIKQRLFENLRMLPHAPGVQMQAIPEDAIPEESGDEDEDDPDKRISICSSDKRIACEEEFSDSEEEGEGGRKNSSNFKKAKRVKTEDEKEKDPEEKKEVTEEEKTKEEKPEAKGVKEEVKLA

Schistosoma mansoni [8] = assay: Antischistosomal activity against Schistosoma mansoni assessed as worm mortality at 5 ug/ml incubated for 5 days by stereomicroscopic method relative to control; assay type: functional; conditions: 120 h, time 5 day
Schistosoma mansoni [9] = assay: Antischistosomal activity against Schistosoma mansoni Puerto-Rican assessed as worm mortality incubated for 5 days by stereomicroscopic method; assay type: functional, organism-based; conditions: 120 h
Schistosoma mansoni [10] = assay: Antischistosomal activity against Schistosoma mansoni Egyptian assessed as worm mortality incubated for 5 days by stereomicroscopic method; assay type: functional, organism-based; conditions: 120 h
[11] = Cytotoxicity against Biomphalaria alexandrina incubated for 24 hrs relative to control; parameters: concentration or dose not given beside the values
[12] = Cytotoxicity against Biomphalaria alexandrina incubated for 24 hrs

IC50 (Schistosoma mansoni [1]): 200 nM
Compound: N#Cc1c(C(F)(F)F)cc(Nc2ccccc2OC(F)(F)F)n2c1nc1ccccc12

IC50 (Schistosoma mansoni [2]): 600 nM
IC50 (Schistosoma mansoni [3]): 2000 nM
Compound: Nc1nc(NCC2CCC(CNS(=O)(=O)c3ccc4ccccc4c3)CC2)nc2ccccc12 (stereo unspecified)

IC50 (Schistosoma mansoni [1]): 200 nM
Compound: N#Cc1c(C(F)(F)F)cc(NCc2cccs2)n2c1nc1cc(Cl)c(Cl)cc12

IC50 (Schistosoma mansoni [1]): 1600 nM
Compound: Clc1ccc2c(N3CCNCCN(c4ccnc5cc(Cl)ccc45)CCNCC3)ccnc2c1

IC50 (Schistosoma mansoni [1]): 200 nM
Compound: N#Cc1c(C(F)(F)F)cc(Nc2cccc(OC(F)(F)F)c2)n2c1nc1ccccc12

Compound: CCNCCNc1cc(-c2ccc(C(F)(F)F)cc2)c(C#N)c2nc3ccccc3n12
IC50 (Schistosoma mansoni [4]): 200 nM
mortality at 10 µM (Schistosoma mansoni [5]): > 70%

Compound: N#Cc1c(-c2ccc(C(F)(F)F)cc2)cc(NC2CCC(N)CC2)n2c1nc1cc(Cl)cc(Cl)c12 (stereo unspecified)
IC50 (Schistosoma mansoni [4]): 200 nM
mortality at 10 µM (Schistosoma mansoni [5]): > 70%

IC50 (Schistosoma mansoni [1]): 200 nM
Compound: N#Cc1c(C(F)(F)F)cc(NCc2cccc(F)c2)n2c1nc1cc(Cl)c(Cl)cc12

Compound: CCNCCNc1cc(C2CCCC2)c(C#N)c2nc3ccccc3n12
IC50 (Schistosoma mansoni [4]): 200 nM
mortality at 10 µM (Schistosoma mansoni [5]): > 70%

IC50 (Schistosoma mansoni [2]): 2200 nM
IC50 (Schistosoma mansoni [3]): 3400 nM
Compound: c1ccc(Oc2ccc(-c3cncc(-c4ccc5[nH]ccc5c4)n3)cc2)cc1
Activity (Schistosoma haematobium): 75.4%

IC50 (Schistosoma mansoni [2]): 800 nM
IC50 (Schistosoma mansoni [3]): 4700 nM
Compound: Cn1c(=O)c2c(S(C)(=O)=O)snc2n(C)c1=O
Activity (Schistosoma haematobium): 75.4%

Compound: N#Cc1ccc(Nc2cc(C(F)(F)F)c(C#N)c3nc4ccccc4n23)cc1
mortality at 10 µM (Schistosoma mansoni [6]): > 60%
IC50 (Schistosoma mansoni [4]): 200 nM
mortality at 10 µM (Schistosoma mansoni [5]): > 70%

IC50 (Schistosoma mansoni [2]): 200 nM
IC50 (Schistosoma mansoni [3]): 2100 nM
Compound: O=C(Nc1ccc(C(F)(F)F)c(C(F)(F)F)c1)c1cc(Cl)ccc1O
Activity (Schistosoma haematobium): 100%

Compound: CCNCCNc1cc(-c2ccc(C(F)(F)F)cc2)c(C#N)c2nc3cccc(Cl)c3n12
IC50 (Schistosoma mansoni [4]): 200 nM
mortality at 10 µM (Schistosoma mansoni [5]): > 70%

Compound: N#Cc1c(C(F)(F)F)cc(Nc2ccc(CN3CCOCC3)cc2)n2c1nc1ccccc12
mortality at 10 µM (Schistosoma mansoni [6]): > 60%
IC50 (Schistosoma mansoni [4]): 200 nM
mortality at 10 µM (Schistosoma mansoni [5]): > 70%

inhibition at 1 µM [7]: < 10%
Compound: O=C(NO)c1cccc(C(=O)NOCc2cccc3ccccc23)c1

Compound: CCNCCNc1cc(-c2ccc(C(F)(F)F)cc2)c(C#N)c2nc3c(Cl)cc(Cl)cc3n12
IC50 (Schistosoma mansoni [4]): 200 nM
mortality at 10 µM (Schistosoma mansoni [5]): > 70%

Compound: N#Cc1c(-c2ccc(C(F)(F)F)cc2)cc(NCCn2ccnc2)n2c1nc1ccccc12
IC50 (Schistosoma mansoni [4]): 200 nM
mortality at 10 µM (Schistosoma mansoni [5]): > 70%

IC50 (Schistosoma mansoni [1]): 200 nM
Compound: Cc1ccc(CNc2cc(C(F)(F)F)c(C#N)c3nc4cc(Cl)c(Cl)cc4n23)cc1

Compound: CCNCCNc1cc(-c2ccc(C(F)(F)F)cc2)c(C#N)c2nc3ncccc3n12
IC50 (Schistosoma mansoni [4]): 200 nM
mortality at 10 µM (Schistosoma mansoni [5]): > 70%

inhibition at 1 µM [7]: < 10%
Compound: O=C(NO)c1cccc(C(=O)NOCc2ccccc2)c1

Compound: COc1ccc(Nc2cc(C(F)(F)F)c(C#N)c3nc4ccccc4n23)cc1
mortality at 10 µM (Schistosoma mansoni [6]): > 60%
IC50 (Schistosoma mansoni [4]): 200 nM
mortality at 10 µM (Schistosoma mansoni [5]): > 70%

inhibition at 1 µM [7]: < 10%
Compound: Cc1ccc(CONC(=O)c2cccc(C(=O)NO)c2)cc1

Compound: CCN(CC)CCCC(C)Nc1c2c3ccccc3nc-2n(C)c2ccc(Cl)cc12 (stereo unspecified)
mortality at 5 µg/mL (Schistosoma mansoni [8]): 100%
IC50 (Schistosoma mansoni [9]): 15000 nM
IC90 (Schistosoma mansoni [9]; time 5 day): 21600 nM
IC50 (Schistosoma mansoni [10]): 11700 nM
IC90 (Schistosoma mansoni [10]; time 5 day): 16800 nM

Compound: CCNCCNc1cc(-c2ccc(C(F)(F)F)cc2)c(C#N)c2nc3cccc(Br)c3n12
IC50 (Schistosoma mansoni [4]): 200 nM
mortality at 10 µM (Schistosoma mansoni [5]): > 70%

Compound: N#Cc1c(C(F)(F)F)cc(Nc2cnccn2)n2c1nc1ccccc12
IC50 (Schistosoma mansoni [1]): 200 nM
mortality at 10 µM (Schistosoma mansoni [6]): > 60%
IC50 (Schistosoma mansoni [4]): 200 nM
mortality at 10 µM (Schistosoma mansoni [5]): > 70%

Compound: CN1CCC(Oc2cc(-c3ccc(C(F)(F)F)cc3)c(C#N)c3nc4ccccc4n23)CC1
IC50 (Schistosoma mansoni [4]): 200 nM
mortality at 10 µM (Schistosoma mansoni [5]): > 70%

Compound: CCNCCNc1cc(-c2ccc(C(F)(F)F)cc2)c(C#N)c2nc3cc(Cl)c(Cl)cc3n12
IC50 (Schistosoma mansoni [4]): 200 nM
mortality at 10 µM (Schistosoma mansoni [5]): > 70%

inhibition at 1 µM [7]: < 10%
Compound: O=C(NO)c1cccc(C(=O)NOCc2cccc(Cl)c2Cl)c1

Compound: CN(C)CCNc1nc2ccc(Nc3cc(C(F)(F)F)c(C#N)c4nc5ccccc5n34)cc2o1
mortality at 10 µM (Schistosoma mansoni [6]): > 60%
IC50 (Schistosoma mansoni [4]): 200 nM
mortality at 10 µM (Schistosoma mansoni [5]): > 70%

Compound: N#Cc1c(C(F)(F)F)cc(Nc2ccccc2)n2c1nc1ccccc12
mortality at 10 µM (Schistosoma mansoni [6]): > 60%
IC50 (Schistosoma mansoni [4]): 200 nM
mortality at 10 µM (Schistosoma mansoni [5]): > 70%

Compound: Cn1c2nc3ccccc3c-2c(NCCN2CCCC2)c2cc(Cl)ccc21
mortality [11]: 100%
LC50 [12]: 1740 nM
LC90 [12]: 2640 nM

IC50 (Schistosoma mansoni [1]): 200 nM
Compound: N#Cc1c(C(F)(F)F)cc(NCc2ccc(F)cc2)n2c1nc1cc(Cl)c(Cl)cc12

Compound: CCNCCNc1cc(-c2cccc(C(F)(F)F)c2)c(C#N)c2nc3ccccc3n12
IC50 (Schistosoma mansoni [4]): 200 nM
mortality at 10 µM (Schistosoma mansoni [5]): > 70%
